# In US6380239B1, “Substituted 1-oxo- and 1,3-dioxoisoindoline and method of reducing inflammatory cytokine levels” (Celgene Corporation, priority 1999, dated 2002):
row,melting point,SMILES
1,183 to 185 °C,"Nc1cccc2c1CN(C(CCC(=O)O)C(=O)O)C2=O (stereo not shown) [Example 14, 1-(4-Amino-1-oxoisoindolin-2-yl)propane-1,3-dicarboxylic acid]"
2,198 to 200 °C,"Nc1cccc2c1C(=O)N(C(CCC(=O)O)C(=O)O)C2=O (stereo not shown) [Example 16, 1-(4-Amino-1,3-dioxoisoindolin-2-yl)propane-1,3-dicarboxylic acid]"
3,182 to 184 °C,"NC(=O)CCC(C(=O)O)N1C(=O)c2cccc([N+](=O)[O-])c2C1=O (stereo not shown) [Example 17, 2-(4-Nitro-1,3-dioxoisoindolin-2-yl)-4-carbamoylbutanoic acid]"
4,165 to 167 °C,"NC(=O)CCC(C(=O)O)N1C(=O)c2cccc(N)c2C1=O (stereo not shown) [Example 18, 2-(4-Amino-1,3-dioxoisoindolin-2-yl)-4-carbamoylbutanoic acid]"
